Measurements: US7119071B2, “Amino terminal substance P compositions and methods for using the same” (University of Medicine and Dentistry of New Jersey, priority 2002, dated 2006)

Experiments:
Assay type in all cases: cell-based, human
NK-1 mRNA = experiment: Quantitative RT-PCR for NK-1 mRNA in BM stroma; details: n=6; for NK-1 mRNA, 2nd stimulation: BM stroma washed and re-stimulated for 16 h after 16 h 1st stimulation; for NK-1 mRNA, 1st stimulation: BM stroma, 10 nM SP(1-4) or 10 ng/ml SCF for 16 h, mean±SD
Experimental: (§1) Stromal cultures were prepared with BM aspirates from healthy donors as described^24. Briefly, stromal cells were cultured at 33° C. and at day 3, the granulocytes and red blood cells were removed by Ficoll-Hypaque density gradient. Cultures were reincubated with weekly replacement of 50% culture media until confluence. Cytokine, NK receptor and c-kit expressions were studied in confluent stroma, stimulated with 10 nM SP(1-4) and/or 10 ng/ml SCF. Stroma was stimulated in 3 ml sera-free cc-MEM, supplemented with insulin-transferring-selenium-A (Life Technologies, Grand Island, N.Y.). At 16 h, stromal monolayers were washed with sera-free α-MEM and then re-incubated for 16 h with media, 10 nM SP(1-4) or 10 ng/ml SCF. Controls included stroma cultured for 16 h or 32 h in media alone. Time-course and dose-response curves established the optimal concentrations of SCF and SP(1-4).
(§2) Quantitative RT-PCR for NK-1, NK-2 and β-PPT-I mRNA was performed as described^3, 24. Briefly, 2 μg of total RNA from BM stroma was reverse transcribed and 200 ng cDNA used in PCR reactions with standard DNA at log10 fold dilutions ranging between 10^−2 and 10^−6 attomole/L. PCR products (10 μl) were separated on agarose containing ethidium bromide. The DNA was scanned with a Fluorimager (Molecular Dynamics, Sunnyvale, Calif.) and the densities analyzed with ImageQuant software (Molecular Dynamics, version 5.2). A standard curve was established for each unknown sample: Band densities of unknown/standard DNA vs. Log10 standard DNA concentration. The concentration of the unknown sample was read at the point where the ratio of the unknown and standard were equivalent. Construction of DNA standards was previously described^24. • 1. Immunofluorescence for NK Receptors
(§3) BM stroma was stimulated with 10 nM SP(1-4) or 10 ng/ml SCF for 16 h (1st stimulation). After this, cultures were washed and then re-stimulated further for 16 h with similar concentrations of SP(1-4) or SCF (2nd stimulation). NK-1, NK-2 and β-PPT-I mRNA levels were quantitative by RT-PCR. The results are represented as the mean±SD, n=6. Each experiment was performed with a different BM donor. p<0.05: * vs. unstimulated or SP(1-4). […]: ** vs. unstimulated or SP(1-4).

NK-2 mRNA = experiment: Quantitative RT-PCR for NK-2 mRNA in BM stroma; details: n=6; for NK-2 mRNA, 2nd stimulation: BM stroma washed and re-stimulated for 16 h after 16 h 1st stimulation; for NK-2 mRNA, 1st stimulation: BM stroma, 10 nM SP(1-4) or 10 ng/ml SCF for 16 h, mean±SD
Experimental: as §1, §2, §3

TGF-β in BM stroma = experiment: Induction of TGF-β in BM stroma (CCL 64 growth inhibition bioassay); details: for TGF-β (pg/ml) 2nd stimulation: BM stroma re-stimulated for 16 h after 16 h 1st stimulation; for TGF-β (pg/ml) 2nd stimulation / TGF-β (pg/ml) 1st stimulation: 10 nM SP(1-4) or 10 ng/ml SCF; for TGF-β (pg/ml) 1st stimulation: BM stroma, 16 h, secreted and cell-bound, mean±SD
Experimental: as §1
Growth inhibition of CCL 64 cells forms the basis of the bioassay used to quantitate active TGF-β^25. Each sample was tested in triplicate with […] of supernatants. TGF-β levels were determined from a standard curve established with TGF-β concentrations ranging from 0.001 to 10 ng/ml vs. cell concentration. The presence of TGF-β1 was verified by reanalyses of samples containing >20 ng/ml TGF-β with neutralizing anti-hTGF-β1^25. Neutralization was determined if the anti-TGF-β1 reversed the growth inhibitory effect of the supernatants. • 1. Biopanning of Phage Display Library and Selection of Clones
BM stroma was stimulated with 10 nM SP(1-4) or 10 ng/ml SCF (1st stimulation). After 16 h, cells were harvested or cultures were re-stimulated for 16 h (2nd stimulation) with 10 nM SP(1-4) or 10 ng/ml SCF. TGF-β and TNF-α levels were determined in the total volume of supernatants and cell extracts, obtained from one flask of stromal cells. The results are represented as the mean±SD of the total concentration (secreted and cell-bound/106 stromal cells). p<0.05 vs. unstimulated or SCF.

β-PPT-I mRNA = experiment: Quantitative RT-PCR for β-PPT-I mRNA in BM stroma; details: n=6; for β-PPT-I mRNA, 2nd stimulation: BM stroma washed and re-stimulated for 16 h after 16 h 1st stimulation; for β-PPT-I mRNA, 1st stimulation: BM stroma, 10 nM SP(1-4) or 10 ng/ml SCF for 16 h, mean±SD
Experimental: as §1, §2, §3

c-kit = experiment: Immunofluorescence for c-kit in BM stroma; details: 10 ng/ml SCF, 6 h to 24 h, dim in unstimulated stroma
Experimental: The relative expression of c-kit in BM stroma was determined by immunofluorescence. BM stroma was cultured on coverslips (Fisher Scientific, Springfield, N.J.) and then stimulated with 10 ng/ml of SCF. At different times after cell stimulation, cells were labeled with 50 ng/ml of biotinylated goat anti-c-kit and FITC-avidin. Non-specific binding was determined with biotinylated non-immune goat anti-IgG. Cells were immediately examined on an OlympusProbis microscope (New York/New Jersey Scientific, Inc., Middlebush, N.J.).

NEP mRNA = experiment: Northern analysis of steady state NEP mRNA in BM stroma; details: 10 ng/ml SCF, FIG. 4A
Experimental: Northern analyses for steady state NEP and NK-1 mRNA were performed as described^28. For NEP mRNA, stromal cells were stimulated with SCF for 16 h in sera-free α-MEM supplemented with Insulin-Transferring-Selenium-A. At different times after, total RNA was extracted and 10 μg used for northern analyses. Membranes were consecutively hybridized with [α-^32P]-dATP-labeled cDNA probes for NEP and 18S rRNA as described^3. NK-1 mRNA was determined with total RNA from stromal cultures that were sequentially stimulated with SCF and SP(1-4), described above. The cDNA for NK-1 is previously described^29. NK-2 cDNA was prepared by RT-PCR with total RNA from BM stroma as template and the same primers used for quantitative RT-PCR (described above). The NK-2 fragment, which was equivalent to 274 bp was subcloned into pNoTA/T7 (5 Prime→3 Prime, Boulder, Colo.). The cDNA for human NEP sand 18S rRNA were purchased from American Type Culture Collection (Manassas, Va.).
Total RNA from unstimulated and stimulated (10 ng/ml SCF) BM stroma was analyzed for steady state NEP mRNA levels by northern analyses. The results shown in FIG. 4A indicate single bands at the predicted size of 1.8 kb. […] Analyses for SP and SP(1-4) were performed at different times using Ciphergen's ProteinChip Arrays. ELISA determined the levels of SP-IR in the supernatant and cell extracts of the stimulated stroma (5×10^6 stroma). […]

NK-1 receptor = experiment: Immunofluorescence for SP-binding sites (NK-1) in BM stroma; details: 10 ng/ml SCF and/or 10 nM SP(1-4), FIG. 2
Experimental: (§4) BM stroma was stimulated with 10 ng/ml of SCF. At 24 h, cells were washed and then immediately incubated at 4° C. for 2 h with 200 ng/ml of biotin-SP or biotin-NK-A. After this, cells were labeled with FITC-avidin for 30 min and then examined for fluorescence intensity with an Olympus Provis AX-70 at 480±40 nm/excitation and 535±50 nm/emission. […] The optimal experimental conditions were determined in dose-response and time-course studies. Specificity of binding by SP or NK-A was studied in competition labeling with the pan-tachykinin antagonist, spantide. • 2. TNF-α determination
(§5) Since NK-1 and NK-2 receptors mediated the hematopoietic effects of the tachykinins^5, this section describes the studies and their results designed to further determine the interacting receptor for SP(1-4). Due to the lack of specific antibodies to the human NK-1 and NK-2 receptors, their detection by immunofluorescence was performed with the preferred ligand that was conjugated to biotin: SP for NK-1 and NK-A for NK-2^12. Spantide, a pan-tachykinin antagonist that competes with the ligand for NK receptor binding was used to determine the specificity of binding.

SP-IR = experiment: Competitive ELISA for SP-immunoreactivity (SP-IR) in stimulated BM stroma; details: 10 ng/ml SCF, 5×10^6 stroma
Experimental: Competitive ELISA quantitated SP-IR as described^3. Briefly, Immulon 96-well plates (Dynatech Laboratories Inc., Chantilly, Va.) were precoated with streptavidin and then incubated with biotinylated SP (Chiron Mimotopes, Emeryville, Calif.). Equal volumes (50 μl) of unknown samples and optimum rabbit anti-SP were added to quadruplicate wells. Each sample was assayed as undiluted and three serial dilutions. Complexed anti-SP was detected with Alk Phos-conjugated goat anti-rabbit IgG and Sigma 104 phosphatase substrate. SP-IR levels were calculated from a standard curve developed with O.D. at 405 nm vs. 12 serial dilutions of known SP concentrations, ranging from 100 to 0.08 pg/ml.
Total RNA from unstimulated and stimulated (10 ng/ml SCF) BM stroma was analyzed for steady state NEP mRNA levels by northern analyses. The results shown in FIG. 4A indicate single bands at the predicted size of 1.8 kb. […] Analyses for SP and SP(1-4) were performed at different times using Ciphergen's ProteinChip Arrays. ELISA determined the levels of SP-IR in the supernatant and cell extracts of the stimulated stroma (5×10^6 stroma). An affinity protein chip with mobilized anti-SP determined the presence of SP(1-4) in extracts from 48 h-stimulated stroma. […] At 24 h, the total levels of SP-IR (supernatants and cell extracts) in stimulated stroma were 185±8 ng. SP levels were reduced to 12±5 ng at 48 h and to baseline levels (<2 ng) at 72 h (Table 3).

NK-2 receptor = experiment: Immunofluorescence for NK-A-binding sites (NK-2) in BM stroma; details: 10 ng/ml SCF and/or 10 nM SP(1-4), FIG. 2
Experimental: as §4, §5

CFU-GM = experiment: Clonogenic assay for CFU-GM in sera-free cultures; details: n=7
Experimental: BM aspirate was obtained from the posterior iliac crest of normal healthy volunteers. Mononuclear cells were isolated by Ficoll-Hypaque density gradient and then assayed for CFU-GM in sera-free cultures as described^3. Briefly, 10^5 BM mononuclear cells/ml were plated in methylcellulose with 10 or 1 nM of SP(1-4). Each experimental point was assayed in duplicate. Cultures were assayed in parallel in the presence or absence of anti-TGF-β or anti-TNF-α, each ranging between 2 μg/ml and 10 ng/ml. Cultures contained 3 U/ml of rhGM-CSF. At day 10, the number of colonies with >20 cells were counted.

Substance	NK-1 mRNA, 2nd stimulation (NK-1 mRNA)	NK-2 mRNA, 2nd stimulation (NK-2 mRNA)	TGF-β levels after 2nd stimulation (TGF-β in BM stroma; 1st stimulation SP(1-4), 2nd stimulation 16 h later, text citing Table 1) [pg]	TGF-β (pg/ml) 2nd stimulation (TGF-β in BM stroma)	β-PPT-I mRNA, 2nd stimulation (β-PPT-I mRNA)	NK-1 mRNA, 1st stimulation (NK-1 mRNA)	fluorescence intensity of c-kit labeling (c-kit)	NK-2 mRNA, 1st stimulation (NK-2 mRNA)	steady state NEP mRNA (northern band) (NEP mRNA; 16 h and 24 h)	steady state NEP mRNA (northern band) (NEP mRNA; 48 h)	TGF-β (pg/ml) 1st stimulation (TGF-β in BM stroma)	β-PPT-I mRNA, 1st stimulation (β-PPT-I mRNA)	NK-1 expression (biotin-SP binding) (NK-1 receptor)	total levels of SP-IR (supernatants and cell extracts) (SP-IR; 24 h, unstimulated <2 ng) [ng]	total levels of SP-IR (supernatants and cell extracts) (SP-IR; 48 h) [ng]	total levels of SP-IR (supernatants and cell extracts) (SP-IR; 72 h) [ng]	NK-2 expression (biotin-NK-A binding) (NK-2 receptor)	percent inhibition on CFU-GM (CFU-GM; 1 nM SP(1-4)) [%]	percent inhibition on CFU-GM (CFU-GM; 10 nM SP(1-4)) [%]	TGF-β, stimulated BM stroma (TGF-β in BM stroma; 1st stimulation, text citing Table 1) [pg]
SP(1-4)→SP(1-4): 1st and 2nd stimulation with 10 nM SP(1-4) (RPKP; Substance P; UniProt P20366 58-61, looked up, fragment)	<1 molecules/μg total RNA	**484 ± 10	64 ± 4	*64 ± 4 pg/ml	<1	–	–	–	–	–	–	–	–	–	–	–	–	–	–	–
SCF: stem cell factor, hematopoietic stimulator cytokine purchased from R&D Systems	1480±34 molecules/μg total RNA	–	–	–	–	*1550 ± 26 molecules/μg total RNA	increased to bright	17 ± 3	Strong bands	no detectable band	<5 pg/mL	640 ± 15	SP binds to stromal cells	185 ± 8	12 ± 5	< 2	did not bind	–	–	–
SCF→SCF: 1st and 2nd stimulation with 10 ng/ml SCF	*1480 ± 34 molecules/μg total RNA	10 ± 2	–	<5 pg/mL	45 ± 4	–	–	–	–	–	–	–	–	–	–	–	–	–	–	–
Arg-Pro-Lys-Pro (RPKP; listed as Homo sapiens) [SP(1-4), tetrapeptide resulting from degradation of SP by endopeptidases such as NEP]	–	–	–	–	–	<1 molecules/μg total RNA	–	**510 ± 15	–	–	*90 ± 15 pg/ml	<1	–	–	–	–	–	55±4	65±6	90 ± 15
